Data published in ChEMBL document CHEMBL5226309, “Synthetic RNA Modulators in Drug Discovery” (J Med Chem, 2021).

Key:
[1] = Binding affinity to TAR mRNA assessed as dissociation constant by ITC analysis
[2] = Displacement of Tat from TAR mRNA by FRET analysis
[3] = Downregulation of alpha-Synuclein level in human SH-SY5Y cells at 5 uM relative to control; format: functional
[4] = tested on: HEK293; assay: Inhibition of miR-125a in human HEK293 cells relative to control; format: cell-based; conditions: dose or concentration not given here
[5] = tested on: HEK293; assay: Inhibition of miR-125a in human HEK293 cells assessed as increase in mature miR-21 level at 50 uM relative to control; format: cell-based
[6] = tested on: HEK293; assay: Inhibition of miR-125a in human HEK293 cells assessed as increase in pre miR-21 level at 50 uM relative to control; format: cell-based
[7] = Inhibition of 5'FAM-labeled and 3'DAB-labeled Precursor microRNA-373 (unknown origin) assessed as inhibition of Dicer-induced pre-miR-373 cleavage by measuring fluorescence incubated for 30 min in presence of human recombinant Dicer by FRET Dicer assay
[8] = Inhibition of 5'FAM-labeled and 3'DAB-labeled Precursor microRNA-372 (unknown origin) assessed as inhibition of Dicer-induced pre-miR-372 cleavage by measuring fluorescence incubated for 30 min in presence of human recombinant Dicer by FRET Dicer assay
[9] = tested on: HeLa; assay: Inhibition of miR-21 in human HeLa cells assessed as reduction in relative light unit at 10 uM by luciferase reporter assays relative to control; format: cell-based
[10] = Antiproliferative activity against human U87 cells assessed as reduction in cell viability by XTT assay; format: functional, cell-based, U-87MG ATCC; conditions: U-87 MG
[11] = tested on: A498; assay: Antiproliferative activity against human A498 cells assessed as reduction in cell viability by XTT assay; format: functional, cell-based
[12] = Induction of mRNA mediated IPRF assessed as increase in frame shifting efficiency at 10 uM relative to control
[13] = tested on: HeLa; assay: Induction of mRNA mediated IPRF in human HeLa cells assessed as increase in frame shifting efficiency at 0.3 uM in presence of M1-FPK sequence relative to control; format: cell-based
[14] = tested on: HeLa; assay: Induction of mRNA mediated IPRF in human HeLa cells assessed as increase in frame shifting efficiency at 10 uM in presence of F-VPK sequence relative to control; format: cell-based
[15] = tested on: HeLa; assay: Induction of mRNA mediated IPRF in human HeLa cells assessed as increase in frame shifting efficiency at 0.3 uM in presence of M2-FPK sequence relative to control; format: cell-based
[16] = Induction of mRNA mediated IPRF assessed as increase in frame shifting efficiency at 10 uM in presence of M2-VPK sequence relative to control
[17] = molecular target: T1, Muscleblind-like protein 1 (Homo sapiens) (UniProt Q9NR56); assay: Inhibition of MBNL1 (unknown origin) in human GDM-1 cells assessed as rescue of IR exon splicing defect at 100 pM by PCR analysis relative to control; format: cell-based
T1 sequence (whole entry): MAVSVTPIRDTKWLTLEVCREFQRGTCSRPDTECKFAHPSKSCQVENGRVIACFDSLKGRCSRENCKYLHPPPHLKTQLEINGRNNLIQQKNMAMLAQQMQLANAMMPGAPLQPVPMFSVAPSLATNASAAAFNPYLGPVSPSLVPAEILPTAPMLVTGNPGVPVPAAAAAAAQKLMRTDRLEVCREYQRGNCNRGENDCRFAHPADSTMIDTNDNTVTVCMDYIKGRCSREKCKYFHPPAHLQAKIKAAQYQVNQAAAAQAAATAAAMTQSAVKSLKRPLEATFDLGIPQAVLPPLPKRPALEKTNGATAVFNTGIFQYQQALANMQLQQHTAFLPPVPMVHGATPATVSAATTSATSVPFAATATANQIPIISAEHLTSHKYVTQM

[18] = tested on: Hepatitis C virus; assay: Antiviral activity against HCV JFH-1 infected in human Huh-7 cells assessed as reduction in viral replication measured after 48 hrs by RT-PCR analysis relative to control; format: functional, Hepacivirus hominis; set-up: scale not given: the % may be the effect or the level left
[19] = Downregulation of miR-122 expression in human Huh-7 cells at 10 uM incubated for 48 hrs by RT-PCR analysis relative to control; format: functional
[20] = Induction of apoptosis in human U-87 MG cells; format: functional, U-87MG ATCC
[21] = tested on: HeLa; assay: Induction of apoptosis in human HeLa cells; format: functional
[22] = Inhibition of miR-21 (unknown origin) by luciferase reporter assays relative to control; conditions: concentration not given here
[23] = Inhibition of miR-21 (unknown origin) maturation assessed as reduction in pre-miR-21 expression at 10 uM by RT-PCR analysis relative to control
[24] = Inhibition of miR-21 (unknown origin) at 1 uM by differential scanning fluorometry analysis relative to control
[25] = Binding affinity to miR-21 (unknown origin) assessed as dissociation constant by fluorescence based analysis
[26] = Binding affinity to HIV-1 mRNA assessed as dissociation constant; set-up: species or system Human immunodeficiency virus 1
[27] = Binding affinity to miR-21 (unknown origin) assessed as dissociation constant
[28] = Binding affinity to miR-21 (unknown origin) at 5 uM by differential scanning fluorometry analysis relative to control

For `CN(C)CCCn1cc(CNC(=O)Cc2csc(NC(=O)Cc3csc(N)n3)n2)nn1`, the Kd [1] was 540 nM and the DC50 [2] was 1500 nM.
In the case of `c1cc(C2=NCCN2)ccc1Oc1ccc(-c2nc3ccc(C4=NCCN4)cc3[nH]2)cc1`, the Activity [3] is reported as 40%.
`CCn1cc(C(=O)O)c(=O)c2cc(F)c(N3CCNCC3)nc21` gave an inhibition [4] of 100%, an inhibition [5] of 150% and an inhibition [6] of 100%.
For `NC[C@@H]1O[C@H](O[C@H]2[C@@H](O)[C@H](O[C@@H]3[C@@H](O)[C@H](N)C[C@H](N)[C@H]3O[C@H]3O[C@H](CN)[C@@H](O)[C@H](O)[C@H]3N)O[C@@H]2Cn2cc(CCC(=O)Nc3ccc(-c4csc(NC(=O)c5ccc(N)cc5)n4)cc3)nn2)[C@H](N)[C@@H](O)[C@@H]1O`, the IC50 [7] was 1100 nM and the IC50 [8] was 1080 nM.
For `C#CCOc1ccc(-c2noc(-c3nnn(-c4cccc(/C(C)=N/O)c4)c3N)n2)cc1`, the RLU [9] was 2.19, the IC50 [10] was 3300 nM and the IC50 [11] was 100000 nM.
`Cc1ccc2ccc(NC(=O)CCN(CCCCCCCCN(CCC(=O)Nc3ccc4ccc(C)nc4n3)CCC(=O)Nc3ccc4ccc(C)nc4n3)CCC(=O)Nc3ccc4ccc(C)nc4n3)nc2n1` gave an Activity [12] of 13%, an Activity [13] of 0.35% and an Activity [14] of 21%. It also gave an Activity [15] of 0.32% and an Activity [16] of 15%.
`N#Cc1ccc(Nc2ccc(-c3nc4ccc(C#N)cc4[nH]3)cc2)cc1` showed an Activity [3] of 40%.
Work on `C#CC(=O)NCCCCCC(=O)N(CCN(C)C(=O)CCCOc1cccc(-c2nc3ccc(-c4nc5ccc(N6CCN(C)CC6)cc5[nH]4)cc3[nH]2)c1)CC(=O)N(C)[C@@H](C)C(=O)N(C)[C@@H](C)C(=O)N(C)[C@@H](C)C(=O)N(CCCCN(C)C(=O)CCCOc1cccc(-c2nc3ccc(-c4nc5ccc(N6CCN(C)CC6)cc5[nH]4)cc3[nH]2)c1)CC(=O)N(CCCN=[N+]=[N-])CC(N)=O` yielded an inhibition [17] of 100%.
`c1cc(C2=NCCN2)ccc1Oc1ccc(-c2cc3ccc(C4=NCCN4)cc3[nH]2)cc1` showed an Activity [3] of 40%.
In the case of `CCn1cc(C(=O)NC(C)(C)C)c(=O)c2cc(F)c(N3CCNCC3)nc21`, the inhibition [4] is reported as 20%.
Compound `O=C(Nc1ccc2ccccc2c1)c1ccc(Cl)cc1Cl` has an Activity [18] of 48% and an Activity [19] of 72%.
`C#CCNC(=O)c1ccc(NC(=O)c2ccccc2Br)cc1` showed an Activity [20] of 13% and an Activity [21] of 24%.
`CCn1cc(C(=O)NCc2ccccc2)c(=O)c2cc(F)c(N3CCNCC3)nc21` gave an inhibition [4] of 30%.
With `CN(C)CCCn1cc(CNC(=O)c2csc(NC(=O)c3csc(NC(=O)c4csc(N)n4)n3)n2)nn1` the Kd [1] was 6700 nM and the DC50 [2] was 10600 nM.
In the case of `C#CCNC(=O)c1ccc(/N=N/c2ccccc2)cc1`, the inhibition [22] is reported as 11% and the inhibition [23] is reported as 78%.
Work on `Cc1ccccc1NCC(O)Cn1c2ccc(Br)cc2c2cc(Br)ccc21` (stereo not drawn) yielded an inhibition [24] of 47%.
In the case of `COc1ccc(NCC(O)Cn2c3ccc(Br)cc3c3cc(Br)ccc32)cc1` (stereo not drawn), the inhibition [24] is reported as 59%.
Compound `CNC(=O)c1cc(Oc2ccc(NC(=O)Nc3ccc(Cl)c(C(F)(F)F)c3)c(F)c2)ccn1` [REGORAFENIB] has a Kd [25] of 730 nM.
Work on `CC(=O)Nc1nc(-c2cccc(NC(=O)C(CNC(=O)[C@@H](N)CCCNC(=N)N)NC(=O)[C@@H](N)CCCNC(=N)N)c2)cs1` (stereo partly drawn) yielded a Kd [26] of 2400 nM.
Work on `NC[C@@H]1O[C@H](O[C@H]2[C@@H](O)[C@H](O[C@@H]3[C@@H](O)[C@H](N)C[C@H](N)[C@H]3O[C@H]3O[C@H](CN)[C@@H](O)[C@H](O)[C@H]3N)O[C@@H]2CSCCNC(=O)CCCCCn2cc(COc3ccc4c(c3)C(=O)N(O)C(=O)C4)nn2)[C@H](N)[C@@H](O)[C@@H]1O` yielded an inhibition [24] of 90%.
In the case of `O=S(=O)(c1ccc2c(c1)CCCN2)N1CCC[C@@H]2CCCC[C@H]21`, the Activity [18] is reported as 47% and the Activity [19] is reported as 45%.
For `NC[C@H]1O[C@H](O[C@H]2[C@H](O)[C@@H](O[C@H]3O[C@H](CNC(=O)CCC(=O)N[C@@H](Cc4ccccc4)C(=O)N[C@@H](CS)C(N)=O)[C@@H](O)[C@H](N)[C@H]3O)[C@H](N)C[C@@H]2N)[C@H](O)[C@@H](O)[C@@H]1O`, the Kd [27] was 4.36 nM and the Activity [28] was 140%.
